Results: patent US20020127287A1, “Treatment of lyso paf-mediated disorders with lyso paf or paf antagonists and procedure for determining their efficacy” (priority 1990, published 2002)

Experiments:
[1] = molecular target: T1, paf receptors on neutrophils (PMN) (Homo sapiens, UniProt P25105); test: [^3H]paf binding to intact human neutrophils (PMN); conditions: for [^3H]paf binding: 20° C., 30 min
T1 construct: Neutrophils (PMN) were prepared from venous blood (40 ml) from normal donors; endogenous in cells; host or cells: intact neutrophils (PMN) from venous blood of normal donors
T1 sequence (P25105 whole entry): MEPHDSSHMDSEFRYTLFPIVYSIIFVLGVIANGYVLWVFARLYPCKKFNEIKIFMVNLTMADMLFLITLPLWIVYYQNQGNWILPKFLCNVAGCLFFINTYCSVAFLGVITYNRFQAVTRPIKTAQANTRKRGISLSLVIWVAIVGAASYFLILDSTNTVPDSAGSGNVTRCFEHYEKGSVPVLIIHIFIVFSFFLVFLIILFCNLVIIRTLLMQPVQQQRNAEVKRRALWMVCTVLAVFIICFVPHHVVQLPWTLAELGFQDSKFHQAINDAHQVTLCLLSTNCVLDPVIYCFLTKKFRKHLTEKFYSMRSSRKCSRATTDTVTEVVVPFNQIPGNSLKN
Procedure: (§2) Neutrophils (PMN) were prepared from venous blood (40 ml) from normal donors, anticoagulated with citric acid dextrose (7:1, v/v) was sedimented for 30 to 45 min in gelatin 0.3% final (Plasmagel®). Twenty ml of supernatant were layered on 10 ml Ficoll Hypaque (d=1.077) and centrifuged (400×g, 20 min, 20° C.). The cell pellet containing PMN (95%) was resuspended in 500 μl Tyrode's buffer (pH=7.4). Erythrocyte lysis was performed by adding 3 volumes of distilled water for 40 sec. followed by 1 volume NaCl (3.5%, w/v). PMN were then washed twice in Tyrode's buffer (centrifugation at 370×g at 20° C. for 10 min). Cell concentration was adjusted to 5×10^7 per ml.
(§3) Binding studies were performed using, for example, intact neutrophils (PMN) or intact human blood eosinophils. PMN (2.5×10^6) or eosinophils (2.5×10^5) were suspended in 500 μl Tyrode's buffer supplemented with 1.3 mM CaCl2, 1 mM MgCl2 and 0.25% (v/v) fatty acid-free bovine serum albumin (BSA, w/v) were incubated with [^3H]paf (0.325-6.5 nM) either for 30 min at 20° C. or for 20 hrs at 4° C. Non-specific binding was assessed with the unlabeled ligands either paf (500 nM) or the receptor antagonist WEB 2086 (1 μM or 400 nM).
In a second set of experiments, [^3H]paf binding was performed by adding 3.25 nM [^3H]paf to PMN, simultaneously with low dose (5 to 50 nM) of paf, lyso paf, the enantiomer of paf or 2-lyso phosphatidylcholine (LPC) for 30 min at 20° C. [^3H]paf binding was also measured in the presence of the phorbol ester 4-phorbol-12-myristate-13-acetate (PMA, 1 to 16 nM) either added simultaneously with [^3H]paf or preincubated 15 min at 37° C. previously. […] After the binding procedure, cells were separated from their suspending medium by filtration in a millipore vacuum system with GF/C filters. Filters were washed with 10 ml Tyrode's buffer at 4° C. and radioactivity was assessed by scintillation. Cell-bound radioactivity on the filters after subtraction of blanks (filter-bound radioactivity in the absence of cells) was expressed in fmol [^3H]paf bound per 2.5×10^6 PMN or 2.5×10^5 eosinophils.

[2] = system: lyso paf receptors on neutrophils (PMN); test: [^3H]lyso paf binding to neutrophils (PMN); design: species or system human; conditions: 20° C.
Procedure: as §2
The binding of [^3H]lyso paf (0.325-0.5 nM) was measured after 30 min incubation at 20° C. in the absence or presence of an excess of unlabeled lyso paf (500 nM), paf (500 nM) or WEB 2086 (1 μM). The effect of low dose paf (5 nM) on the binding of [^3H]lyso paf was also investigated. […] After the binding procedure, cells were separated from their suspending medium by filtration in a millipore vacuum system with GF/C filters. Filters were washed with 10 ml Tyrode's buffer at 4° C. and radioactivity was assessed by scintillation. Cell-bound radioactivity on the filters after subtraction of blanks (filter-bound radioactivity in the absence of cells) was expressed in fmol [^3H]paf bound per 2.5×10^6 PMN or 2.5×10^5 eosinophils.

[3] = molecular target: T2, paf receptors on eosinophils (Homo sapiens, UniProt P25105); test: [^3H]paf binding to intact human eosinophils; conditions: for specific [^3H]paf binding: 20° C., 30 min
T2 construct: endogenous in cells; host or cells: intact human blood eosinophils (about 96% pure)
T2 sequence (P25105 whole entry): as above
Procedure: Eosinophils were also prepared under sterile conditions. Blood (400 ml) was mixed with 10% (v/v) dextran. The supernatant was carefully deposited on a metrizoate/ficoll suspension (d=1.148) after sedimentation of red blood cells and centrifuged (400×g: 40 min). Erythrocyte lysis was performed by adding 3 v. of distilled water for 40 sec, followed by 1 v. NaCl (3.5%, w/v). Cells were suspended in 500 μl pH 7.4 Tyrode's buffer, centrifuged (1900 rpm×10 min) and resuspended (5×10^6 cells/ml) in Tyrode's (0.25% BSA) without Ca^2+. The eosinophils fraction at 1×10^6 cells/ml contained 96±5% eosinophils, 3±3% neutrophils, 1±2% mononuclear cells and no free platelets (mean±s.d., n=3).
as §3
Eosinophils were added to Tyrode's (0.25% BSA, 1.3 mM CaCl2, 1 mM MgCl2) containing [3H]paf (0.325-6.5 nM) in the absence or presence of unlabeled paf, lyso paf, enantio-paf or lyso-phosphatidylcholine (LPC) (5, 10, 50, 500 nM) and/or the specific paf receptor antagonist WEB 2086 (400 nM). After the binding procedure, cells were separated from their suspending medium by filtration in a millipore vacuum system with GF/C filters. Filters were washed with 10 ml Tyrode's buffer at 4° C. and radioactivity was assessed by scintillation. Cell-bound radioactivity on the filters after subtraction of blanks (filter-bound radioactivity in the absence of cells) was expressed in fmol [^3H]paf bound per 2.5×10^6 PMN or 2.5×10^5 eosinophils.

PMN = test: cytosolic free calcium (fura-2) in PMN; assay type: cell-based, human; conditions: 1 to 500 nM; CaCl2 1.3 mM or EGTA 2 mM
Procedure: (§1) The concentration of cytosolic free calcium [Ca^2+]i was measured using the [Ca^2+]i indicator fura-2-acetoxymethyl ester (fura-2). […] The spectrofluorophotometer was programmed to shuttle between the two excitation wavelengths of 340 and 380 nm every 5 sec while keeping the emission wavelength of 505 nm. […] Background values were subtracted from all data. The intracellular Ca^2+ was calculated with the formula [[…] is KD of the fura-2 multiplied with the quotient of the fluorescence at 380 nm from the minimal and the maximal [Ca^2+]i fluorescence.

eosinophils [4] = test: cytosolic free calcium (fura-2) in eosinophils; assay type: cell-based, human; conditions: 1-100 nM; Ca^2+ free buffer, EGTA 2 mM
Procedure: as §1

eosinophils [5] = test: paf metabolism by intact eosinophils; assay type: in vitro ADME, human; conditions: binding conditions
Procedure: Cells were then separated by vacuum filtration and phospholipids were extracted. Briefly, filters were placed in 500 μl water. […] High pressure liquid chromatography (HPLC) was performed using standard procedure with dichloromethane/methanol/water (50:50.5, by vol) and eluted with a flow rate of 1 ml/min. The radioactivity was measured in the fractions after subtraction of the background values.

platelets = test: paf-mediated platelet aggregation; assay type: cell-based; conditions: BSA […]; for EC50: Platelet, 0.05 h, 3 min aggregation
Procedure: (§4) Results are expressed as mean±S.D. or S.E. and statistics were performed using the “Mann Whitney” test (n=3, n=5 or n=6 as indicated).

human platelets = test: acetylhydrolase release from activated platelets; assay type: cell-based; conditions: Thrombin 0.5 IU/ml; for acetylhydrolase release: Paf 500 nM
Procedure: as §4

acetylhydrolase = acetylhydrolase activity, kinetic constants; assay type: biochemical, human
Procedure: Acetylhydrolase activity was measured in lysates of resting platelets or platelets stimulated with thrombin (0.5 IU/ml, 1 min, 37° C.), in supernatants of thrombin-activated platelets with or without acid-treated (inactivation of acetylhydrolase) plasma and in native plasma. Samples were incubated for 10 min at 37° C. in the presence of 0.1 μCi [^3H]acetyl paf and concentrations of unlabeled paf varying from 5 to 35 μM. The microenvironment modulates the acetylhydrolase indicating the origin of plasma acetylhydrolase from activated platelets.

U 937 cells = test: cAMP levels of U 937 cells; assay type: cell-based
Procedure: U 937 cells were grown in stationary suspension culture in RPMI 1640 containing 10% fetal calf serum (FCS) and 2 mM L-glutamine at 37° C. in a humidified atmosphere of 5% CO2 and 95% air. The cells were diluted with fresh medium (1/10, v/v) twice a week. After three days in culture, U 937 cells were centrifuged (1000×G for 10 min) and incubated for 24 hrs in RPMI 1640 medium containing 10% CPSR 1 (delipidated FCS) and 2 mM L-glutamine. Subsequently the cells were incubated in the delipidated FCS medium containing cholesterol (10-60 μg/ml), as compared with solvent alone (ethanol, 0.5% v/v, final concentration) for (2, 4 or 24 hrs).
Cyclic AMP in supernatants from cholesterol-treated and control cells, were measured by the Rianen [^125I]cAMP-RIA Kit. Briefly, cholesterol (60 μg/ml, 24 hrs) or cholesterol vehicle (ethanol) were added after 24 hrs cell incubation in delipidated FCS medium. Cells were subsequently washed three times and resuspended (5×10^6, final concentration) in Hanks Hepes (HH)-buffer, pH 7.4 with ascorbinic acid (10 mM) and cAMP-phosphodiesterase inhibitor IBMX (1 mM). Cell suspension (100 μl) was added to 400 μl of the cAMP buffer for 30 min at 20° C. […] Values are from one experiment (representative of three) expressed as pmol cAMP per 10^6 cells. Total proteins were measured by standard procedure.

[6] = source of acetylhydrolase: (1) Platelets
[7] = source of acetylhydrolase: (2) Thrombin-activated platelets
[8] = source of acetylhydrolase: (3) Supernatant from (2)
[9] = source of acetylhydrolase: (4) Native plasma

CCCCCCCCCCCCCCCCCCOC[C@H](COP(=O)([O-])OCC[N+](C)(C)C)OC(C)=O [paf, 1-octadecyl-2-acetyl-sn-glycero-3-phosphocholine]
Kd ([1]; 4° C.): 0.44 nM
binding sites (high affinity) on neutrophils ([1]; 4° C.): 3612 binding sites
[^3H]paf binding ([1]; Add. 5 nM, WEB 2086 1 μM): 376 ± 21 fmol [^3H]paf bound per 2.5×10^6 PMN
[^3H]paf binding ([1]; paf 5 nM, preincubation 0 min at 37° C.): 414 fmol [^3H]paf bound per 2.5×10^6 PMN
[^3H]paf binding ([1]; paf 5 nM, preincubation 15 min at 37° C.): 331 fmol [^3H]paf bound per 2.5×10^6 PMN
effect of excess unlabeled ligand on [^3H]paf binding ([1]; paf 500 nM, WEB 2086 1 μM): inhibited
effect of unlabeled ligand on [^3H]lyso paf binding ([2]; excess unlabeled paf or lyso paf 500 nM, WEB 2086 1 μM): increased
binding of […] [^3H]lyso paf ([2]; paf 5 nM, increased from 197.0±4.5): 255.0±10.5 fmol per 2.5×10^6 PMN
binding sites per eosinophil [3]: 8.6×10^4 sites per eosinophil
specific [^3H]paf binding, maximal plateau values ([3]; 20 hrs at 4° C., assessed with unlabeled paf 500 nM or WEB 2086 400 nM): 14.0±9.0 fmol per 2.5×10^5 cells
Kd ([3]; 20 hrs at 4° C., read-out: binding affinity (Kd) on eosinophils): 5.5 nM
specific [^3H]paf binding ([3]; addition 5 nM, WEB 2086 400 nM): 3.8 ± 5.0 fmol per 2.5×10^5 cells
specific [^3H]paf binding ([3]; addition 10 nM, WEB 2086 400 nM): 4.3 ± 2.9 fmol per 2.5×10^5 cells
specific [^3H]paf binding ([3]; addition 50 nM, WEB 2086 400 nM): 7.2 ± 5.4 fmol per 2.5×10^5 cells
specific [^3H]paf binding ([3]; addition 500 nM): 12.5 ± 6.9 fmol per 2.5×10^5 cells
cytoplasmic Ca^2+ flux in response to agonist (PMN): concentration-dependent entry of Ca^2+
[Ca^2+]i rise in response to agonist (eosinophils [4]): concentration-dependent elevation of [Ca^2+]i
metabolism of added paf (eosinophils [5]): did not metabolize
concentration for maximal aggregation (platelets; 20° C.): 2.6 ± 0.5 nM
concentration for maximal aggregation (platelets; 37° C.): 5.0 ± 0.5 nM
EC50 (platelets; 20° C.): 0.4 ± 0.1 nM
EC50 (platelets; 37° C.): 0.9 ± 0.2 nM
released of the total acetylhydrolase (human platelets; paf 500 nM, mean±S.E., n=3): 10.3±1.5%
acetylhydrolase release (human platelets; stimulation 0 sec): 1.0 ± 1.0 percentage of the total content of acetylhydrolase
acetylhydrolase release (human platelets; stimulation 15 sec): 8.2 ± 3.2 percentage of the total content of acetylhydrolase
acetylhydrolase release (human platelets; stimulation 30 sec): 7.8 ± 2.6 percentage of the total content of acetylhydrolase
acetylhydrolase release (human platelets; stimulation 60 sec): 9.5 ± 4.0 percentage of the total content of acetylhydrolase
acetylhydrolase release (human platelets; stimulation 120 sec): 10.0 ± 1.4 percentage of the total content of acetylhydrolase
acetylhydrolase release (human platelets; stimulation 180 sec): 12.6 ± 3.8 percentage of the total content of acetylhydrolase
acetylhydrolase release (human platelets; stimulation 300 sec): 10.3 ± 1.5 percentage of the total content of acetylhydrolase
Km (acetylhydrolase; [6]): 8.3 ± 1.5 µM
Vmax (acetylhydrolase; [6]): 0.3 nmol/min/mg prot.
Km (acetylhydrolase; [7]): 10.6 ± 1.5 µM
Vmax (acetylhydrolase; [7]): 0.3 nmol/min/mg prot.
Km (acetylhydrolase; [8]): 7.9 ± 1.5 µM
Vmax (acetylhydrolase; [8]): 1.4 nmol/min/mg prot.
Km (acetylhydrolase; [9]): 5.3 ± 0.5 µM
Vmax (acetylhydrolase; [9]): 1.4 nmol/min/mg prot.
cAMP in response to paf (U 937 cells): dose dependent fall in cAMP
